Assay results as given in the NIST ThermoML archive (doi:10.1021/je100068y).

Assay: mn = molality of the nth substance listed, in mol/kg
Conditions: 101.33 kPa, Liquid

O [water] + NCC(=O)NCC(=O)O
m2 = 0
Conditions | mass density [kg/m3]
303.15 K | 995.55
313.15 K | 992.392

CC(C)C[C@H](NC(=O)CN)C(=O)O [glycyl-L-leucine] + O
mass density [kg/m3]
Conditions | m1 = 0.01944 | m1 = 0.02958 | m1 = 0.0395 | m1 = 0.04928 | m1 = 0.057 | m1 = 0.07128 | m1 = 0.09125 | m1 = 0.1001
298.15 K | 997.991 | 998.487 | 998.954 | 999.428 | 999.792 | 1000.49 | 1001.44 | 1001.85
303.15 K | 996.492 | 996.981 | 997.455 | 997.926 | 998.294 | 998.981 | 999.94 | 1000.35
308.15 K | 994.971 | 995.453 | 995.927 | 996.398 | 996.773 | 997.443 | 998.415 | 998.822
313.15 K | 993.308 | 993.787 | 994.248 | 994.705 | 995.068 | 995.712 | 996.655 | 997.07

CC(C)[C@H](NC(=O)CN)C(=O)O [glycyl-L-valine] + O
mass density [kg/m3]
Conditions | m1 = 0.02257 | m1 = 0.03982 | m1 = 0.06066 | m1 = 0.07858 | m1 = 0.1017 | m1 = 0.1513 | m1 = 0.1791 | m1 = 0.2026
298.15 K | 998.221 | 999.108 | 1000.17 | 1001.09 | 1002.26 | 1004.75 | 1006.13 | 1007.28
303.15 K | 996.723 | 997.606 | 998.679 | 999.59 | 1000.76 | 1003.24 | 1004.65 | 1005.79
308.15 K | 995.192 | 996.067 | 997.129 | 998.03 | 999.181 | 1001.63 | 1003.01 | 1004.11
313.15 K | 993.535 | 994.395 | 995.435 | 996.317 | 997.462 | 999.879 | 1001.22 | 1002.29

NCC(=O)NCC(=O)O [glycylglycine] + O
mass density [kg/m3]
Conditions | m1 = 0.0294 | m1 = 0.04517 | m1 = 0.06076 | m1 = 0.07901 | m1 = 0.1051 | m1 = 0.1496 | m1 = 0.2003 | m1 = 0.257 | m1 = 0.3022
298.15 K | 998.688 | 999.547 | 1000.42 | 1001.42 | 1002.86 | 1005.27 | 1007.99 | 1011.04 | 1013.4
303.15 K | 997.189 | 998.051 | 998.909 | 999.898 | 1001.33 | 1003.76 | 1006.46 | 1009.51 | 1011.87
308.15 K | 995.661 | 996.52 | 997.375 | 998.349 | 999.766 | 1002.15 | 1004.89 | 1007.83 | 1010.28
313.15 K | 994.003 | 994.856 | 995.681 | 996.677 | 998.065 | 1000.44 | 1003.12 | 1006.06 | 1008.41
